Experiments:
Rattus norvegicus [1] = experiment: Compound was tested for diarrheagenic activity in rats after intrajejuna administration (I.J); format: functional
Rattus norvegicus [2] = species: Rattus norvegicus; experiment: Compound was tested for mucosal protective activity against indomethacin-induced intestinal damage in rats; format: functional
Rattus norvegicus [3] = experiment: Compound was tested for diarrheagenic activity in rats after intracolonic administration (I.C); format: functional
Rattus norvegicus [4] = species: Rattus norvegicus; experiment: Compound was tested for mucosal protective activity against indomethacin-induced gastric damage in rats; format: functional, Stomach
Rattus norvegicus [5] = species: Rattus norvegicus; experiment: Compound was tested for mucosal protective activity in rats using 4 hr EtOH model; format: functional
Rattus norvegicus [6] = experiment: Compound was tested for diarrheagenic activity in rats after intragastric administration (I.G); format: functional

CCCCC(C)(O)C/C=C/[C@H]1[C@H](O)CC(=O)[C@@H]1CCCCCCC(=O)OC (stereo partly specified) [MISOPROSTOL]
ED50 (Rattus norvegicus [1]): 534 (ug of misoprostol) kg-1 | ED50 (Rattus norvegicus [2]): 294 (ug of misoprostol) kg-1 | ED50 (Rattus norvegicus [3]): 97 (ug of misoprostol) kg-1 | ED50 (Rattus norvegicus [4]): 14 (ug of misoprostol) kg-1 | ED50 (Rattus norvegicus [5]): 525 (ug of misoprostol) kg-1 | ED50 (Rattus norvegicus [6]): 265 (ug of misoprostol) kg-1

— ChEMBL document CHEMBL1126983, “Catalytic functionalization of polymers: a novel approach to site specific delivery of misoprostol to the stomach” (1993)
